Measurements as given in patent US11299467B2 (Antabio SAS, priority 2017, dated 2022).
Converted amounts (≈) assume the structure as drawn. Read-outs that look alike come from different tables or passages of the source.

Experiments:
[1] = test system: NTBC104-1 (K. pneumoniae strain expressing NDM-1 and SHV-11); experiment: Meropenem MIC, broth micro-dilution, NTBC104-1; type: cell-based; conditions: Klebsiella pneumoniae
Description: (§1) The experiments were carried out using the ‘broth micro-dilution method’ according to the protocols M07-A8 established by the Clinical Laboratory Standards Institute (CLSI). Serial dilutions of the β-lactam antibiotic (Meropenem) were prepared in 96-well plates in cation-adjusted Mueller-Hinton broth (CAMHB); the concentration range was defined from 0.03 mg/L to 512 mg/L. The compounds were added at a constant concentration of 8 μg/mL. A bacterial inoculum of each strain (clinical isolates) was adjusted to a 0.5 McFarland turbidity standard in physiologic serum (0.9% NaCl), then diluted 1:100 in CAMHB and added to each well to give a final bacterial cell number of 5×10^5 CFU/well. After incubation for 18-20 hours in a heating chamber at 37° C., the growth inhibition was evaluated by the absence of any bacterial development.
Compounds of the invention were tested at a constant concentration of 8 μg/mL. The clinical strains used in these potentiation experiments were NTBC020 (E. coli strain expressing NDM-1, TEM-1 and CTX-M-15); NTBC035-2 (K. pneumoniae strain expressing NDM-1, CMY-4 and SHV-11); NTBC104-1 (K. pneumoniae strain expressing NDM-1 and SHV-11); NTBC123 (K. pneumoniae strain expressing NDM-1); NTBC018 (C. freundii strain expressing VIM-2); NTBC024 (K. pneumoniae strain expressing VIM-19, TEM-1 and CTX-M-3); NTBC042 (E. coli strain expressing VIM-1, TEM-1, CTX-M-15, SHV-12); NTBC055 (E. Coli strain expressing VIM-1); NTBC062 (K. pneumoniae strain expressing IMP-1 and TEM-1) and NTBC039 (K. oxytoca strain expressing IMP-28).
(§2) Mice were infected in the thigh with K. pneumoniae NTBC104. […] The MIC of meropenem in the presence of 8 ug/mL of the compound of Example 2 is 4 ug/mL.
(§3) Experiments were carried out using the ‘broth micro-dilution method’ according to the protocols M07-A8 established by the Clinical Laboratory Standards Institute (CLSI). […] After incubation for 18-20 hours in a heating chamber at 37° C., the growth inhibition was evaluated by the absence of any bacterial development. […]

[2] = test system: NTBC055 (E. Coli strain expressing VIM-1); experiment: Meropenem MIC, broth micro-dilution, NTBC055; type: cell-based; conditions: Escherichia coli, read-out: MIC mero
Description: as §1
Compounds of the invention were tested at a constant concentration of 8 μg/mL. […]
as §3

[3] = test system: NTBC091-1 (E. coli strain expressing KPC-2 and TEM-1); experiment: Meropenem MIC, broth micro-dilution, NTBC091-1; type: cell-based; conditions: Escherichia coli, read-out: MIC mero
Description: as §1, with “Experiments” for “The experiments”, “meropenem (mero)” for “the β-lactam antibiotic (Meropenem)”, “compounds (the compound of Example 2, above, and/or WCK4234)” for “compounds”, “the” for “a constant”, “indicated in the table below.” for “of 8 μg/mL.”
(§4) NTBC091-1 (E. coli strain expressing KPC-2 and TEM-1); NTBC093 (E. cloacae strain expressing KPC-2 and TEM-1); NTBC096-1 (K. pneumonia strain expressing OXA-181 and SHV-11); NTBC099 (K. pneumonia strain expressing KPC-3, SHV-11 and TEM-1); and NTBC189 (K. pneumonia strain expressing TEM-OSBL, CTX-M-14 and OXA-48).

[4] = test system: NTBC189 (K. pneumonia strain expressing TEM-OSBL, CTX-M-14 and OXA-48); experiment: Meropenem MIC, broth micro-dilution, NTBC189; type: cell-based; conditions: Klebsiella pneumoniae, read-out: MIC mero
Description: as §1, with “Experiments” for “The experiments”, “meropenem (mero)” for “the β-lactam antibiotic (Meropenem)”, “compounds (the compound of Example 2, above, and/or WCK4234)” for “compounds”, “the” for “a constant”, “indicated in the table below.” for “of 8 μg/mL.”
as §4

[5] = test system: NTBC185 (K. pneumonia strain expressing SHV-OSBL, TEM-OSBL, NDM-1 and OXA-48); experiment: Meropenem MIC, broth micro-dilution, NTBC185; type: cell-based; conditions: Klebsiella pneumoniae, read-out: MIC mero
Description: as §1, with “Experiments” for “The experiments”, “meropenem (mero)” for “the β-lactam antibiotic (Meropenem)”, “compounds (the compound of Example 2, above, and/or WCK4234)” for “compounds”, “the” for “a constant”, “indicated in the table below.” for “of 8 μg/mL.”
NTBC019 (K. pneumonia strain expressing NDM-1, CTX-M-15 and OXA-181); NTBC185 (K. pneumonia strain expressing SHV-OSBL, TEM-OSBL, NDM-1 and OXA-48); NTBC186 (K. pneumonia strain expressing ACT-TYPE, VIM-1 and OXA-48); NTBC187 (K. pneumonia strain expressing SHV-OSBL, NDM-1 and OXA-48); and NTBC188 (K. pneumonia strain expressing NDM-1 and KPC-2).

K. pneumoniae NTBC104 = experiment: In vivo efficacy, mouse thigh infection with K. pneumoniae NTBC104; conditions: meropenem at 30 mg/kg alone, 9 hours post infection
Description: as §2
At the end of the experiment (9 hours post infection) the animals were sacrificed and the numbers of colony forming units (CFUs) were measured in order to quantify bacterial load (extent of the infection).

[6] = test system: panel of clinical Enterobacteriacae strains expressing NDM enzymes (196 isolates); experiment: Extended MIC profiling vs MBL-expressing clinical strains (meropenem potentiation); type: cell-based; conditions: 196 NDM-expressing clinical isolates
Source text: By contrast, the same concentration of meropenem alone is only capable of stopping the growth of <1% of the strains and within the parameters of the experiment the cessation of growth of 90% of all strains could not be achieved with meropenem alone.
To assess the coverage and potentiation of meropenem by compounds of the invention, the susceptibility of around 200 clinical isolates was examined. The criteria for selection into the panel was that the clinical strain was resistant to carbapenems, but only expressing NDM enzyme variants and not serine betalactamase enzymes with carbapenemase activity such as KPC or OXA.

With C[C@@H](O)[C@H]1C(=O)N2C(C(=O)O)=C(S[C@@H]3CN[C@H](C(=O)N(C)C)C3)[C@H](C)[C@H]12 [Meropenem] the MIC ([1]; read-out: MIC mero) was 64 µg/mL, the MIC ([1]; read-out: MIC of meropenem against K. pneumoniae NTBC104) was 64 µg/mL and the MIC [2] was 4 µg/mL. It also gave an MIC [3] of 4 µg/mL (≈ 10.4 µM), an MIC [4] of 16 µg/mL (≈ 41.7 µM) and an MIC [5] of 128 µg/mL (≈ 334 µM). The “bacterial load (CFUs)” value (K. pneumoniae NTBC104) was “reduced bacterial load slightly” and the “strains whose growth is stopped by the same concentration (8 ug/mL) of meropenem alone” value [6] was < 1%.
